Laboratory results: patent publication US20220057378A1, “MICROBIAL MICROFLUIDIC BIOSENSOR” (priority 2015, published 2022)
Where “and” joins values, the source holds several entries; their conditions need not be identical. Equal values may be shown once.

Tests used:
[1] = tested on: E. coli MG1655 containing pRS18; experiment: on-chip step-induction of arsenic-sensing plasmid pRS18 (GFP); assay type: cell-based; settings: pRS18 in E. coli MG1655, M9 + 0.4% glucose
Description: Induction of pRS18, an arsenic-sensing plasmid, was first tested in the microfluidic device. A recombinant strain of E. coli MG1655 containing pRS18 was vacuum loaded into the microfluidic device, grown to confluence, and step-induced with sodium ortho-arsenite (Na3AsO3) in M9 minimal medium supplemented with 0.4% glucose. Images were collected using a Nikon Ti microscope with 4× objective magnification. Step induction was executed using the gravity-driven “Dial-AWave” automated flow control system to mix two medium sources in a defined ratio. The cells were sequentially exposed to arsenic concentrations of 0 μM, 0.1 μM, 0.5 μM, and 1 μM in 6-h windows, allowing time for the cells to respond to each concentration increase. […] We believe that the rise in GFP expression prior to the induction step is due to a small leak of inducer into the medium stream. Average fluorescence within the trapping regions of the images as well as arsenic concentration is plotted over time in FIG. 47C.

[2] = tested on: As7 with luxCDABE operon; experiment: plate reader induction of arsenic sensor, Lux reporter; assay type: cell-based; settings: Tecan plate reader
Description: Luminescent reporters. […] In FIG. 8, we compare these reporters driven by an arsenic-responsive promoter, where the induction response was measured side-by-side using a Tecan plate reader.
For comparison, the arsenic concentration used for testing the GFP construct in a microfluidic device was 130 nM, or 0.13 μM. Thus, replacing GFP with Lux promises to greatly increase the sensitivity of the biosensor.
The arsenic sensor construct As7 was modified to replace the gfp gene with the luxCDABE operon, and relative induction (fluorescence or luminescence) of the two constructs was tested side-by-side using a Tecan Infinite M200 Pro plate reader (see FIG. 38). […] In contrast, the GFP construct was sensitive to arsenic only above a concentration of 26 nM. For comparison, we were able to detect an arsenic concentration of 130 nM using the GFP construct in a microfluidic device. Thus, replacing GFP with Lux promises to greatly increase the sensitivity of the biosensor.

[3] = tested on: E. coli MG1655/Cd1; experiment: on-chip time-lapse induction of promoter construct (GFP, gill chip); assay type: cell-based
[4] = tested on: E. coli LABEC01/Cr5; experiment: as above; assay type: cell-based
[5] = tested on: E. coli MG1655/Cu1; experiment: as above; assay type: cell-based
[6] = tested on: E. coli MG1655 containing pCueCopA; experiment: on-chip step-induction of copper-sensing plasmid pCueCopA (GFP); assay type: cell-based; settings: pCueCopA in E. coli MG1655, LB medium
Description: Second, induction of pCue-CopA, a copper-sensing plasmid, was tested in the microfluidic device. A recombinant strain of E. coli MG1655 containing pCueCopA was vacuum-loaded into a microfluidic device, grown to confluence, and step-induced with copper sulfate (CuSO4) in LB medium. Images were collected using an Etaluma LumaScope microscope with 20× objective magnification. Step induction was again performed using the “Dial-A-Wave” automated flow control system. The cells were sequentially exposed to copper concentrations of 0 μM, 25 μM, 52 μM, 77 μM, and 99 μM in 6-h windows.

[7] = tested on: E. coli MG1655/Pb7; experiment: 18-strain chip induction; assay type: cell-based
Description: (§1) In an embodiment herein, the toxin response data across 18 unique sensing strains were also collected using a new chip design that houses 16 E. coli strains and 2 B. subtilis strains. The B. subtilis NCIB 3610/Amm3 construct is a “lights-off” sensor, meaning that GFP production drops when ammonium is introduced, following a slight increase due to faster growth on this preferred nitrogen source. […] By combining these sensor responses, we can identify cobalt by the unique response of Pb7 alone and lead by the unique combination of Zn6, Pb7, and Pb8 responses.

[8] = tested on: E. coli MG1655/Pb8; experiment: 18-strain chip induction; assay type: cell-based; settings: Zn6, Pb7, Pb8 in descending magnitude
Description: as §1

[9] = tested on: E. coli MG1655/Zn6; experiment: 18-strain chip induction; assay type: cell-based; settings: Zn6, Pb7, Pb8 in descending magnitude
Description: as §1

[10] = tested on: E. coli LABEC01/Pb2; experiment: on-chip time-lapse induction of promoter construct (GFP, gill chip); assay type: cell-based
[11] = tested on: E. coli MG1655/Hg3

In the case of `[As]` [Arsenic], the “arsenic concentration detected on-chip (GFP)” value [1] is reported as 0.1 µM and 0.13 µM and the “arsenic concentration detected, Lux construct” value [2] is reported as 0.2 nM.
In the case of `[Cd]` [Cadmium], the “SNR after 6 h” value ([3]; 0.04 μM cadmium, 6 h induction, SNR > 2 = significant response) is reported as 17 and the “Concentration Sensed in Microfluidic Device” value (“Concentration Sensed” for short) ([3]; cadC/pcadC from S. aureus plasmid, native RBS) is reported as 0.04 µM.
With `[Cr+6]` [Chromium(VI)] the “SNR after 6 h” value ([4]; 5 μM chromium(VI), 6 h induction, SNR > 2 = significant response) was 5 and the “Concentration Sensed” value ([4]; chrB/pchrB from O. tritici transposon, native RBS) was 5 µM.
`[Cu]` [Copper] was tested, and the “SNR after 6 h” value ([5]; 25 μM copper, 6 h induction, SNR > 2 = significant response) was 65, the “Concentration Sensed” value ([5]; cueR/pcopA from E. coli genome, native RBS) was 25 µM and the “copper concentration detected on-chip (GFP)” value [6] was 25 µM.
With `[Pb]` [Lead] the “GFP response of strain Pb7” value [7] was “respond sensitively”, the “GFP response of strain Pb8” value [8] was “respond sensitively” and the “GFP response of strain Zn6” value [9] was “respond sensitively”. The “SNR after 6 h” value ([10]; 7 μM lead, 6 h induction, SNR > 2 = significant response) was 18 and the “Concentration Sensed” value ([10]; pbrR/ppbrR from C. metallidurans plasmid, synthetic RBS) was 7 µM.
In the case of Mercury, the “SNR after 6 h” value ([11]; 0.1 μM mercury, 6 h induction, SNR > 2 = significant response) is reported as 20 and the “Concentration Sensed” value ([11]; merR/pmerR from E. coli plasmid, synthetic RBS) is reported as 0.1 µM.
